What follows are compounds tested against human Plasma Kallikrein (Homo sapiens (Human), UniProt P03952) (assay: In vitro enzyme inhibition of human plasma kallikrein (PFR-AMC cleavage)). Conditions: not given.
Type: biochemical
Protocol: The ability of the compounds disclosed herein to inhibit human plasma kallikrein activity was quantified according to the procedures below.
A 10 mM solution of the test compound was made in DMSO. […] A control tube containing only DMSO is included. 16 μL of each compound test solution was combined with 384 μL of assay buffer (50 mM Tris-HCl pH 7.5, 150 mM NaCl, 0.01% Triton X-100) to yield a “4× test compound buffer stock”.
These solutions are hereby referred to as 4×hPK and 2×PFR-AMC, respectively.
50 μL was removed from this mixture and placed into duplicate wells on a Microfluor 1Black U-bottom microtiter plate (Thermo Scientific). This plate was incubated for 5 minutes at 37° C. To each well, 50 μL of pre-warmed 2×PFR-AMC was added to start the enzymatic reaction. Cleavage of PFR-AMC was monitored in a Biotek Synergy H4 reader set at 37° C. Readings are taken every 43 seconds for 1 hour. […] The IC50 is calculated using the Gen5 (Biotek Instruments).
The ability of the compounds in Table 3 to inhibit human plasma kallikrein activity was determined.

Sequence of human Plasma Kallikrein (P03952 20-638): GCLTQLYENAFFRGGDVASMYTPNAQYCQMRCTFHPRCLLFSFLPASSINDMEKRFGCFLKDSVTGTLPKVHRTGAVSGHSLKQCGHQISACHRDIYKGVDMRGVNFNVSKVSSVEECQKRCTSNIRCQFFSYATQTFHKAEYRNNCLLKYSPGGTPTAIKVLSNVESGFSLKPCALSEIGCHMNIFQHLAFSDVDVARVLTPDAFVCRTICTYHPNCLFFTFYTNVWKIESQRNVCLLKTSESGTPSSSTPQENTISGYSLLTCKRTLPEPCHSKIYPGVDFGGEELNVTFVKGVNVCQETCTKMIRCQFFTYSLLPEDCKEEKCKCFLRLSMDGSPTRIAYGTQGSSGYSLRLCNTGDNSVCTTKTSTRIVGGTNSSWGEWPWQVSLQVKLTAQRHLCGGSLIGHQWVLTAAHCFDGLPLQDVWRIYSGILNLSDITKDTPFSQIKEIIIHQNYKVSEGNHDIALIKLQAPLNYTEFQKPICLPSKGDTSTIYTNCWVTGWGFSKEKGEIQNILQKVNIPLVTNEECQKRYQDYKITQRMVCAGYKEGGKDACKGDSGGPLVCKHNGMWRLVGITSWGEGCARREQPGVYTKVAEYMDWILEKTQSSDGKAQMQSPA

Row | Structure (SMILES) | IC50 [nM]
1 | Cc1cc(N)nc(C)c1CNC(=O)c1ccnc(Cn2ccc3c(Cl)cccc3c2=O)c1 [Example 22, N-(6-Amino-2,4-dimethyl-pyridin-3-ylmethyl)-2-(5-chloro-1-oxo-1H-isoquinolin-2-ylmethyl)-isonicotinamide] | 100 to 1000

Same assay, conditions: human plasma kallikrein, Pro-Phe-Arg-AMC substrate, 37° C.; read-out: hPK IC50

Row | Structure (SMILES) | IC50 [nM]
2 | O=C(NCc1cc2c(Cl)c[nH]c2cc1F)c1ccnc(Cc2cnc3ccccc3c2)c1 [Example 125, N-((3-chloro-6-fluoro-1H-indol-5-yl)methyl)-2-(quinolin-3-ylmethyl)isonicotinamide] | < 100
3 | N#Cc1cc(Cc2cc(C(=O)NCc3n[nH]c4ccc(Cl)cc34)ccn2)cc2cc(Cl)cnc12 [Example 54, 2-(3-chloro-8-cyano-quinolin-6-ylmethyl)-N-(5-chloro-1H-indazol-3-ylmethyl)-isonicotinamide] | < 100
4 | Cc1cc(N)nc(C)c1CNC(=O)c1ccnc(Cc2cnc3ccc(S(C)(=O)=O)cc3c2)c1 [Example 14, N-((6-amino-2,4-dimethylpyridin-3-yl)methyl)-2-((6-(methylsulfonyl)quinolin-3-yl)methyl)isonicotinamide] | 100 to 1000
5 | NCc1ccc2cc(Cc3cc(C(=O)NCc4ccc5c(N)nccc5c4)ccn3)ccc2n1 [Example 146, N-((1-aminoisoquinolin-6-yl)methyl)-2-((2-(aminomethyl)quinolin-6-yl)methyl)isonicotinamide] | 100 to 1000
6 | Cc1cnc2c(C#N)cc(Cc3cc(C(=O)NCc4ccc5[nH]cc(Cl)c5c4F)ccn3)cc2c1 [Example 74, N-((3-chloro-4-fluoro-1H-indol-5-yl)methyl)-2-((8-cyano-3-methylquinolin-6-yl)methyl)isonicotinamide] | < 100
7 | CS(=O)(=O)c1ccc2cc(Cc3cc(C(=O)NCc4cc5c(Cl)c[nH]c5cc4F)ccn3)ccc2n1 [Example 135, N-((3-chloro-6-fluoro-1H-indol-5-yl)methyl)-2-((2-(methylsulfonyl)quinolin-6-yl)methyl)isonicotinamide] | 100 to 1000
8 | Cc1cc(C(=O)NCc2c(C)cc(N)nc2C)cc(Cc2ccc3ncc(Cl)cc3c2)n1 [Example 104, N-((6-amino-2,4-dimethylpyridin-3-yl)methyl)-2-((3-chloroquinolin-6-yl)methyl)-6-methylisonicotinamide] | < 100
9 | Cc1ccc2nn(Cc3cc(C(=O)NCc4c(C)cc(N)nc4C)ccn3)cc2c1 [Example 107, N-((6-amino-2,4-dimethylpyridin-3-yl)methyl)-2-((5-methyl-2H-indazol-2-yl)methyl)isonicotinamide] | 100 to 1000

Next, values leading:

Row | IC50 [nM] | Structure (SMILES)
10 | < 100 | Cc1cc(N)nc(C)c1CNC(=O)c1ccnc(Cc2ccc3ncc(Cl)cc3c2F)c1 [Example 102, N-((6-amino-2,4-dimethylpyridin-3-yl)methyl)-2-((3-chloro-5-fluoroquinolin-6-yl)methyl)isonicotinamide]
11 | < 100 | Cc1cc(N)nc(C)c1CNC(=O)c1ccnc(Cc2cnc3cc(Cl)ccc3c2)c1 [Example 141, N-((6-amino-2,4-dimethylpyridin-3-yl)methyl)-2-((7-chloroquinolin-3-yl)methyl)isonicotinamide]
12 | 100 to 1000 | Cc1cc(N)nc(C)c1CNC(=O)c1ccnc(Cc2ccc3nc(C(N)=O)ccc3c2)c1 [Example 2, 6-((4-(((6-amino-2,4-dimethylpyridin-3-yl)methyl)carbamoyl)pyridin-2-yl)methyl)quinoline-2-carboxamide]
13 | 100 to 1000 | Nc1ccc(CNC(=O)c2ccnc(Cc3ccc4ncc(Cl)cc4c3)c2)c(C2CC2)n1 [Example 43, N-((6-amino-2-cyclopropylpyridin-3-yl)methyl)-2-((3-chloroquinolin-6-yl)methyl)isonicotinamide]
14 | > 10000 | Nc1ccc(CNC(=O)c2ccnc(Cc3ccc4ncc(Cl)cc4c3)c2)c(C(F)(F)F)n1 [Example 30, N-((6-amino-2-(trifluoromethyl)pyridin-3-yl)methyl)-2-((3-chloroquinolin-6-yl)methyl)isonicotinamide]
